Reference: PMC9218239 (Current Research in Pharmacology and Drug Discovery, 2022)
Where two headings read alike, the source gives them in different places.

Experiments:
[1] = test system: CYP1A2, 2C9, 2C19, 2D6, and 3A4 pooled human supersomes; conditions: 10 μM, recorded from major to minor
[2] = test system: pooled cryopreserved primary human hepatocytes; conditions: single drug, 10 μM, 3 h
[3] = target: CYP2C9 pooled human supersomes (Homo sapiens, UniProt P11712); test: CYP2C9 supersome screening; format: in vitro ADME; conditions: 10 μM; strongly metabolized = less than 80% of the drug remaining
[4] = target: CYP2C19 pooled human supersomes (Homo sapiens, UniProt P33261); test: CYP2C19 supersome screening; format: in vitro ADME; conditions: 10 μM; strongly metabolized = less than 80% of the drug remaining
Sequence of CYP2C19 pooled human supersomes (P33261 whole entry): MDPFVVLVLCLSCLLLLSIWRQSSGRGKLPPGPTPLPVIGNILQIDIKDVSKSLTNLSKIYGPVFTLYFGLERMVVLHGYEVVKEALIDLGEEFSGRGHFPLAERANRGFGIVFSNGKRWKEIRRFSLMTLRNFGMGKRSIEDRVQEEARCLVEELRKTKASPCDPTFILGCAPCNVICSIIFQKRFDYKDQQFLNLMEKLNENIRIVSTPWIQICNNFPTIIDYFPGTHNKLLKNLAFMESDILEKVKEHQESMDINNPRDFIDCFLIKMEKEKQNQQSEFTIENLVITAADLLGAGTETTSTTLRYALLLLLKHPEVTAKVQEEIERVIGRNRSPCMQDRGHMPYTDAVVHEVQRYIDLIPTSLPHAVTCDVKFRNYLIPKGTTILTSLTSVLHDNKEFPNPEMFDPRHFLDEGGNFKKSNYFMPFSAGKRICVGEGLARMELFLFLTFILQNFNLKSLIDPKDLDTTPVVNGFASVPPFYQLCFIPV

Sequence of CYP2C9 pooled human supersomes (P11712 whole entry): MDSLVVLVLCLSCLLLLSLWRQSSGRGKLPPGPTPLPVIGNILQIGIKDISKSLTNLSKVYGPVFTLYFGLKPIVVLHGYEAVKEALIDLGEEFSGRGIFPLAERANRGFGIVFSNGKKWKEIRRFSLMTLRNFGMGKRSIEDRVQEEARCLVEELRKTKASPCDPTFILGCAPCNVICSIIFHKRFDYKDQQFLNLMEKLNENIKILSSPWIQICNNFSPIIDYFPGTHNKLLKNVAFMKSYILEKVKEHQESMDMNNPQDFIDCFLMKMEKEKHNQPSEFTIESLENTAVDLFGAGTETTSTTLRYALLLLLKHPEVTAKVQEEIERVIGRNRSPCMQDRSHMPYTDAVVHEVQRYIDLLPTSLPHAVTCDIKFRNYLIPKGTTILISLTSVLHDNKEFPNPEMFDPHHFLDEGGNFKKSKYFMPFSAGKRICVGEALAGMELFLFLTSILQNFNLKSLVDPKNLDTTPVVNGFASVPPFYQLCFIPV

Row | SMILES | Metabolism Pathway: CYP Pathway (isoenzymes showing parent degradation) [1] | Drug remaining with CYP2C19 (strongly metabolized) [4] | also measured
1 | COc1cc2ncnc(Nc3ccc(F)c(Cl)c3)c2cc1OCCCN1CCOCC1 [Gefitinib, gefitinib] | CYP 2D6 ∗, 3A4∗, 1A2, 2C9, 2C19 |  | Metabolism Pathway: CYP Pathway (isoenzymes showing parent degradation) ([1]; listed as gefitinib): CYP2D6, 3A4, 1A2, 2C9, and 2C19
2 | COc1ccc(C(CN(C)C)C2(O)CCCCC2)cc1 (centres unmarked) [Venlafaxine, venlafaxine] | CYP 2D6∗, 2C19∗ |  | Metabolism Pathway: CYP Pathway (isoenzymes showing parent degradation) ([1]; listed as venlafaxine): CYP2D6 and 2C19
3 | COCCCC/C(=N\OCCN)c1ccc(C(F)(F)F)cc1 [Fluvoxamine, fluvoxamine] | CYP 2D6∗, 2C9, 2C19 |  | Metabolism Pathway: CYP Pathway (isoenzymes showing parent degradation) ([1]; listed as fluvoxamine): CYP2D6, 2C9, and 2C19
4 | Fc1ccc([C@@H]2CCNC[C@H]2COc2ccc3c(c2)OCO3)cc1 [Paroxetine, paroxetine] |  |  | Potential metabolites observed in hepatocytes (alone) assays [2]: no potential metabolites observed
5 | CN[C@H]1CC[C@@H](c2ccc(Cl)c(Cl)c2)c2ccccc21 [Sertraline, sertraline] | CYP 2D6∗, 2C9∗, 2C19∗, 1A2, 3A4 | less than 80% | Drug remaining with CYP2C9 (strongly metabolized) [3]: less than 80%; Metabolism Pathway: CYP Pathway (isoenzymes showing parent degradation) ([1]; listed as sertraline): CYP2D6, 2C9, 2C19, 1A2, and 3A4
6 | CN(C)CCCC1(c2ccc(F)cc2)OCc2cc(C#N)ccc21 (centres unmarked) [Citalopram, citalopram] | CYP 2D6∗, 2C19∗, 3A4, 2C9 | less than 80% | Metabolism Pathway: CYP Pathway (isoenzymes showing parent degradation) ([1]; listed as citalopram): CYP2D6, 2C19, 3A4, and 2C9
